Experimental data: PubChem BioAssay AID1963836 (Molecular Pharmacology Branch, DTP, NCI, 2024)

Test system: 857933-349-R-J2-PDC complex spheroid viability
Test: Anticancer human tumor 857933-349-R-J2-PDC patient-derived colon adenocarcinoma cell line growth inhibition [POLQ]
Conditions: for IC50: curve of first compound; for viability, T/C: stronger effect = lower value; active = viability on the fitted dose curve at most 10% of control; inactive = the rest
Summary of the method: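 Complex spheroid viability model combining PDC tumour cells with endothelial (HUVEC) and MSC stromal cells. Novobiocin, ART-558 or RP6685 were tested singly and in combination with standard and investigational anticancer drugs. Each was titrated in half-log steps from near clinical Cmax, or from 10 microM where Cmax was unknown.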

[1] = second compound 0.0316 µM, first compound 0.0316 µM
[2] = second compound 0.0316 µM, first compound 0.1 µM
[3] = second compound 0.0316 µM, first compound 0.316 µM
[4] = second compound 0.0316 µM, first compound 1 µM
[5] = second compound 0.0316 µM, first compound 3.16 µM
[6] = second compound 0.0316 µM, first compound 10 µM
[7] = second compound 0.1 µM, first compound 0.0316 µM
[8] = second compound 0.1 µM, first compound 0.1 µM
[9] = second compound 0.1 µM, first compound 0.316 µM
[10] = second compound 0.1 µM, first compound 1 µM
[11] = second compound 0.1 µM, first compound 3.16 µM
[12] = second compound 0.1 µM, first compound 10 µM
[13] = second compound 0.316 µM, first compound 0.0316 µM
[14] = second compound 0.316 µM, first compound 0.1 µM
[15] = second compound 0.316 µM, first compound 0.316 µM
[16] = second compound 0.316 µM, first compound 1 µM
[17] = second compound 0.316 µM, first compound 3.16 µM
[18] = second compound 0.316 µM, first compound 10 µM
[19] = second compound 1 µM, first compound 0.0316 µM
[20] = second compound 1 µM, first compound 0.1 µM
[21] = second compound 1 µM, first compound 0.316 µM
[22] = second compound 1 µM, first compound 1 µM
[23] = second compound 1 µM, first compound 3.16 µM
[24] = second compound 1 µM, first compound 10 µM
[25] = second compound 3.16 µM, first compound 0.0316 µM
[26] = second compound 3.16 µM, first compound 0.1 µM
[27] = second compound 3.16 µM, first compound 0.316 µM
[28] = second compound 3.16 µM, first compound 1 µM
[29] = second compound 3.16 µM, first compound 3.16 µM
[30] = second compound 3.16 µM, first compound 10 µM
[31] = second compound 10 µM, first compound 0.0316 µM
[32] = second compound 10 µM, first compound 0.1 µM
[33] = second compound 10 µM, first compound 0.316 µM
[34] = second compound 10 µM, first compound 1 µM
[35] = second compound 10 µM, first compound 3.16 µM
[36] = second compound 10 µM, first compound 10 µM
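Note: spheroids exposed to compounds for seven days before readout.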

C#Cc1c(F)ccc2cc(O)cc(-c3ncc4c(N5CC6CCC(C5)N6)nc(OCC56CCCN5CC(F)C6)nc4c3F)c12 (stereo unspecified) + Nc1ccc(C#CCN(C(=O)Cc2ncc(C(F)(F)F)cc2C(F)(F)F)c2ccc(F)cc2)nn1
inactive: viability, T/C [1] 84.4% | viability, T/C [2] 99.5% | viability, T/C [3] 82.7% | viability, T/C [4] 80.8% | viability, T/C [5] 78.2% | viability, T/C [6] 73.1% | viability, T/C [7] 101% | viability, T/C [8] 101% | viability, T/C [9] 86.8% | viability, T/C [10] 87.1% | viability, T/C [11] 84% | viability, T/C [12] 80.7% | viability, T/C [13] 95.3% | viability, T/C [14] 92.4% | viability, T/C [15] 79% | viability, T/C [16] 73% | viability, T/C [17] 93.8% | viability, T/C [18] 75.5% | viability, T/C [19] 104% | viability, T/C [20] 100% | viability, T/C [21] 79.5% | viability, T/C [22] 79.7% | viability, T/C [23] 86.8% | viability, T/C [24] 70.6% | viability, T/C [25] 101% | viability, T/C [26] 86.8% | viability, T/C [27] 82.7% | viability, T/C [28] 76.7% | viability, T/C [29] 107% | viability, T/C [30] 68.6% | viability, T/C [31] 87% | viability, T/C [32] 76.8% | viability, T/C [33] 87% | viability, T/C [34] 73.9% | viability, T/C [35] 76.3% | viability, T/C [36] 69%
> 10 µM: IC50 (second compound 0.0316 µM) | IC50 (second compound 0.1 µM) | IC50 (second compound 0.316 µM) | IC50 (second compound 1 µM) | IC50 (second compound 3.16 µM) | IC50 (second compound 10 µM)

CC1COCCN1c1cc(C2(O)CC3CCC(C2)O3)c2cnn(-c3ccn[nH]3)c2n1 (stereo unspecified) + Nc1ccc(C#CCN(C(=O)Cc2ncc(C(F)(F)F)cc2C(F)(F)F)c2ccc(F)cc2)nn1
0.662 µM: IC50 (second compound 1 µM)
0.787 µM: IC50 (second compound 0.316 µM)
> 10 µM: IC50 (second compound 0.1 µM) | IC50 (second compound 3.16 µM) | IC50 (second compound 10 µM)
0.863 µM: IC50 (second compound 0.0316 µM)
inactive: viability, T/C [1] 72.7% | viability, T/C [2] 76.5% | viability, T/C [3] 60.7% | viability, T/C [4] 50.3% | viability, T/C [5] 47.4% | viability, T/C [6] 47.6% | viability, T/C [7] 74.4% | viability, T/C [8] 74.7% | viability, T/C [9] 52.7% | viability, T/C [10] 53.1% | viability, T/C [11] 45.5% | viability, T/C [12] 59% | viability, T/C [13] 77.9% | viability, T/C [14] 63.2% | viability, T/C [15] 58.2% | viability, T/C [16] 46.2% | viability, T/C [17] 44.7% | viability, T/C [18] 40.1% | viability, T/C [19] 78% | viability, T/C [20] 70.4% | viability, T/C [21] 61.8% | viability, T/C [22] 40.9% | viability, T/C [23] 40% | viability, T/C [24] 49.2% | viability, T/C [25] 79.2% | viability, T/C [26] 72.3% | viability, T/C [27] 61.4% | viability, T/C [28] 44.1% | viability, T/C [29] 49.9% | viability, T/C [30] 56.4% | viability, T/C [31] 78.2% | viability, T/C [32] 58.9% | viability, T/C [33] 62.1% | viability, T/C [34] 54% | viability, T/C [35] 48.6% | viability, T/C [36] 56%

CCc1cc2c(N3CCc4c(cc(Cn5ccnc5)cc4-c4cn(C)nc4C(F)(F)F)C3=O)cc(C)nc2c(OC)n1 + Nc1ccc(C#CCN(C(=O)Cc2ncc(C(F)(F)F)cc2C(F)(F)F)c2ccc(F)cc2)nn1
inactive: viability, T/C [1] 94.9% | viability, T/C [2] 92.8% | viability, T/C [3] 80.3% | viability, T/C [4] 79.8% | viability, T/C [5] 67.4% | viability, T/C [6] 62.8% | viability, T/C [7] 92% | viability, T/C [8] 101% | viability, T/C [9] 76.2% | viability, T/C [10] 73.5% | viability, T/C [11] 77.7% | viability, T/C [12] 55.1% | viability, T/C [13] 89% | viability, T/C [14] 86.8% | viability, T/C [15] 86.5% | viability, T/C [16] 81% | viability, T/C [17] 65.7% | viability, T/C [18] 57.1% | viability, T/C [19] 95.9% | viability, T/C [20] 96.9% | viability, T/C [21] 86.8% | viability, T/C [22] 78.8% | viability, T/C [23] 75.3% | viability, T/C [24] 51.4% | viability, T/C [25] 87.8% | viability, T/C [26] 87% | viability, T/C [27] 97.7% | viability, T/C [28] 69.3% | viability, T/C [29] 64.3% | viability, T/C [30] 59.5% | viability, T/C [31] 90.2% | viability, T/C [32] 78.5% | viability, T/C [33] 75% | viability, T/C [34] 65.5% | viability, T/C [35] 53.5% | viability, T/C [36] 53.4%
> 10 µM: IC50 (second compound 0.0316 µM) | IC50 (second compound 0.1 µM) | IC50 (second compound 0.316 µM) | IC50 (second compound 1 µM) | IC50 (second compound 3.16 µM) | IC50 (second compound 10 µM)
